Experiments:
PDE 4 = test: Inhibition of PDE 4 activity (method of Bauer and Schwabe, adapted to microtiter plates); assay type: biochemical; conditions: inhibitory concentration as -log IC50 (mol/l)
Procedure: 1. Inhibition of PDE 4 Activity
The activity test was carried out by the method of Bauer and Schwabe, which was adapted to microtiter plates (Naunyn-Schmiedeberg's Arch. Pharmacol. 1980, 311, 193-198). In this connection, the PDE reaction is carried out in the first step. In a second step, the resultant 5′-nucleotide is cleaved to give the uncharged nucleoside by a 5′-nucleotidase of the snake venom from Crotalus atrox. In the third step, the nucleoside is separated from the remaining charged substrate on ion exchange columns. The columns are eluted with 2 ml of 30 mM ammonium formate (pH 6.0) directly into minivials to which 2 ml of scintilation fluid is additionally added for counting.

melting point: 167 to 170 °C
SMILES: CCOc1cc2c(cc1OC)C(c1ccc(-c3nnn(CC)n3)cc1)=N[C@H]1CCCC[C@@H]21 (racemic) [Compound 2, (+/−)-cis-9-Ethoxy-8-methoxy-6-[4-(2ethyl-2H-tetrazol-5-yl)phenyl]-1,2,3,4,4a,10b-hexahydrophenanthridine]
Inhibition of the PDE 4 activity, −log IC50 (PDE 4): 8.78
